Measurements reported in article PMC11189516, “Structure-guided conversion from an anaplastic lymphoma kinase inhibitor into Plasmodium lysyl-tRNA synthetase selective inhibitors” (Communications Biology, 2024).
Values after ≈ are worked out from the molar mass of the structure shown. Values joined by “and” are separate entries in the source; they are usually repeats but may differ in a detail not shown here. Identical values can stand only once. Like-named read-outs stand apart in the source and are kept apart here. Blank lines part the entries; values can stand above or below the molecule they belong to.

Columns and labels:
PfLysRS [1] = molecular target: T1, PfLysRS (Plasmodium falciparum, UniProt Q8IDJ8); assay: ATP hydrolysis assay (Kinase-Glo) on PfLysRS; assay type: biochemical; conditions: for IC50: read-out: IC50 against PfLysRS
T1 construct: PfLysRS (77–583) was constructed in the vector pET20b, with a C-terminal 6×His tag; 6xHis (C); made in house; host or cells: E. coli BL21 (DE3)
Procedure: (§1) The ATP hydrolysis assays were based on Kinase-Glo luminescent Kit (Promega). The experiment was carried out in Corning 384-well white flat bottom microplates. The buffer in the reaction contains 25 mM Hepes pH 7.4, 140 mM NaCl, 40 mM MgCl2, 30 mM KCl, 1 mM TCEP, 0.1 mg·mL^−1 BSA, and 0.004% Tween-20. The compounds were diluted to different concentrations with a 5-fold gradient.
(§2) For LysRS assays, DMSO was added into negative control wells and L-lysine was removed in positive control wells. 100 nM LysRS in 2.5 μL Hepes buffer was mixed with compounds and incubated for 10 min. Then 5 μL substrate mixture (2 μM ATP, 10 μM L-lysine and 31 nM pyrophosphatase) was added to start the reaction at 37 °C and incubated for 6 h.
(§3) When the reaction reaches the planned time, 10 μL diluted Kinase-Glo reagent (1/50 diluted with a buffer containing 50 mM Tris pH 7.5 and 5% glycerol) was added and incubated for 15 min. Luminescence was measured on the Magellan plate reader (Tecan) and nonlinear regression was performed with Prism (GraphPad).

[2] = system: erythrocytic-stage P. falciparum 3D7 parasites; design: method as in PMID 33053158; conditions: read-out: EC50, growth of erythrocytic-stage P. falciparum 3D7; cited from earlier work
PfLysRS [3] = molecular target: T1, PfLysRS; conditions: cited from earlier work
PfLysRS [4] = molecular target: T1, PfLysRS; assay: Thermal shift assay; assay type: binding
Procedure: PfLysRS protein was prepared at 10 μM concentration in a buffer containing 20 mM Tris pH 8.0, 200 mM NaCl, 500 μM L-lysine, and 200 μM Compound. Aliquots (18 µL) were added to a 96-well PCR plate and incubated at ambient temperature for 10 min. SYPRO Orange dye (Sigma) was diluted in the assay buffer containing 20 mM Tris pH 8.0 and 200 mM NaCl to a 40× concentration, and 2 µL of the 40× dye solution was added to the PCR plate to bring the final assay volume to 20 µL. After complete mixing, the final solutions were heated from 25 to 90 °C at a rate of 0.015 °C per sec, and fluorescence signals were monitored by QuantStudio 3 (Applied Biosystems by Thermo Fisher Scientific).

ALK = molecular target: T2, ALK (Homo sapiens, UniProt Q9UM73); assay: ATP hydrolysis assay (Kinase-Glo) on ALK; assay type: biochemical; conditions: read-out: IC50 against ALK
T2 construct: The plasmid pCDNA3.1_8×His-tev-ALK (kinase domain, 1068–1410) was constructed; 8xHis (N); TEV site (N); made in house; host or cells: Expi293 cells (transient transfection)
Procedure: as §1
For ALK assays, DMSO was added into negative control wells. 100 nM ALK in 2.5 μL Hepes buffer was mixed with compounds and incubated for 10 min. Then 5 μL substrate (2 μM ATP) was added to start the reaction at 37 °C and incubated for 6 h.
as §3

HsLysRS = molecular target: T3, HsLysRS (Homo sapiens, UniProt Q15046); assay: ATP hydrolysis assay (Kinase-Glo) on HsLysRS; assay type: biochemical
T3 construct: HsLysRS (70–581) was constructed in the vector pET20b with a C-terminal 6×His tag; 6xHis (C); made in house; host or cells: E. coli (pET20b; 'purified similarly' to PfLysRS, which was expressed in BL21 (DE3))
Procedure: as §1, §2, §3

PfLysRS [5] = molecular target: T1, PfLysRS; assay: Surface plasmon resonance (SPR) assay; assay type: binding; conditions: immobilized PfLysRS
Procedure: PfLysRS was chemically immobilized on a Biacore CM5 sensorchip (immobilization level ~20000 resonance unit/RU) at pH 5.0 according to the immobilization kit (GE Healthcare). PfLysRS (1.7 nM) was captured for 90 s at a flow of 30 µL·min^−1. Affnity between PfLysRS and compounds was measured by SPR on a Biacore 8 K (GE Healthcare) at 25 °C with a running buffer (0.02 M phosphate buffer pH 7.4, 2.7 mM KCl, 0.137 M NaCl, 0.05% Tween 20, with 1 mM L-lysine). The association time was 90 s, the dissociation time was 120 s, and the flowrate was 30 µL·min^−1. Kinetic evaluation of the interaction between LysRS and compounds was performed by global fitting of the data to a 1:1 interaction model using Biacore Evaluation Software 3.1 (GE Healthcare).

[6] = Solubility noted in the cytotoxicity assay; assay type: physicochemical; conditions: highest concentration limited to 100 μM in cell medium
Procedure: Cell viability was analyzed by Cell Counting Kit-8 (CCK8, ApexBio) according to the manufacturer’s protocols. Cells were seeded and cultured at a density of 2.5 × 10^3 cells per well in 100 μL medium in 96-well microplates (Corning). Then, the cells were treated with different concentrations of compound (0, 1 μM, 3 μM, 10 μM, 100 μM, 300 μM). […] After treatment for 72 h, 10 μL of CCK-8 reagent was added to each well and then cultured for 4 h. All experiments were performed in pentaplicate. The absorbance was analyzed at 450 nm using a microplate reader (Tecan) using medium without cells as blanks. Data was processed using GraphPad Prism 9.

P. falciparum ProRS = conditions: sentence of the first manuscript quoted in the peer review file; read-out: dissociation constant (KD); cited from earlier work
Staphylococcus aureus = system: Staphylococcus aureus; design: method as in PMID 6258580, PMID 659331, PMID 3923922; conditions: cited from earlier work
[7] = +Lysine, sheet Figure 6B, in °C (unit assumed)

T1 sequence (Q8IDJ8 entry or part of it): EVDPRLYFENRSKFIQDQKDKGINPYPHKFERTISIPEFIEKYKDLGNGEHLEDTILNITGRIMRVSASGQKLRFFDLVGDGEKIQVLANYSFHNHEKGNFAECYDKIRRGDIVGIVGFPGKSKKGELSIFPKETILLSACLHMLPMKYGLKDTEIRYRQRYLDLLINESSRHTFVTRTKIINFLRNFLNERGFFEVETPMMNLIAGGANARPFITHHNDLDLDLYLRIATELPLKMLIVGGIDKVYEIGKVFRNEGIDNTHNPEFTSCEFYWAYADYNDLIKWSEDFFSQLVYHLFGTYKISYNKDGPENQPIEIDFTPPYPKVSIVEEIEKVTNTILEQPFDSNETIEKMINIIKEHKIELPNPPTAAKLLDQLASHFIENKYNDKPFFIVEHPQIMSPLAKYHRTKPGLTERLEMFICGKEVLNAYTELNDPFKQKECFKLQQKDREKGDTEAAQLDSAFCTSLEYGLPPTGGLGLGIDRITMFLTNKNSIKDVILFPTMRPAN
T3 sequence (Q15046 70-581): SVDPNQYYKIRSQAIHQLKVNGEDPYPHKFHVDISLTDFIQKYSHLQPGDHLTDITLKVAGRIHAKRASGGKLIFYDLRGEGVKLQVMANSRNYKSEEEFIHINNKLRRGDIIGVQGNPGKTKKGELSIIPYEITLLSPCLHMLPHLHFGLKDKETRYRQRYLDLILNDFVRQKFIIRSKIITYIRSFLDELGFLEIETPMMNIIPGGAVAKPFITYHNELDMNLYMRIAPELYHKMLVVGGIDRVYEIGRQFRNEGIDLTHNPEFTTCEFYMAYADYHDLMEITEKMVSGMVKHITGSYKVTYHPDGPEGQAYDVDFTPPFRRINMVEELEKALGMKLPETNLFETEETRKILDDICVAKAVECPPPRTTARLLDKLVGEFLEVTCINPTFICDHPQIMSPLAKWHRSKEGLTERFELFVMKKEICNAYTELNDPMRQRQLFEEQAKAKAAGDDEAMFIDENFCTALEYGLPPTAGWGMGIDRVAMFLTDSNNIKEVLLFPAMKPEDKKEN
T2 sequence (Q9UM73 1068-1410): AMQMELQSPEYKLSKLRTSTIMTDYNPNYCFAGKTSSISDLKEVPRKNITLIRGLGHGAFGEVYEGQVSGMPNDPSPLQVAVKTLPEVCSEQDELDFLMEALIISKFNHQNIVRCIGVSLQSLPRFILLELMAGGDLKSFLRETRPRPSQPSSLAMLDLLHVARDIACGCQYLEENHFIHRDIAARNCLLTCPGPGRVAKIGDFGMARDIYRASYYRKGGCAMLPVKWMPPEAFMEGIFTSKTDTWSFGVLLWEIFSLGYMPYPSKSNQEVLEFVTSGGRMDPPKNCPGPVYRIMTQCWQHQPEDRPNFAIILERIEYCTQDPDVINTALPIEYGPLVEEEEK

Structure (SMILES): COc1cc(N2CCC(N3CCN(C)CC3)CC2)ccc1Nc1ncnc(Nc2ccccc2S(=O)(=O)C(C)C)n1 [ASP3026, N-{2-Methoxy-4-[4-(4-methylpiperazin-1-yl)piperidin-1-yl]phenyl}-N’-[2-(propane-2-sulfonyl)phenyl]-1,3,5-triazine-2,4-diamine]
IC50 (PfLysRS [1]): 967 ± 170 nM
EC50 [2]: 5.61 µM
IC50 (PfLysRS [3]; another kit, different buffer system, ref nucleic acid research paper, read-out: previously reported IC50 against PfLysRS): 657 ± 195 nM
inhibitory effect on human ALK stronger than on PfLysRS (PfLysRS [3]; ref original Nucleic Acid Research paper): about 200 times

△Tm of PfLysRS (PfLysRS [4]; +Lysine, sheet Figure 6B): 12.798
Tm of PfLysRS, Average (PfLysRS [4]; [7]): 57.818
Tm of PfLysRS, single repeat (PfLysRS [4]; [7]): 57.710 and 57.895 and 57.833
ΔTm at 200 µM (PfLysRS [4]; in the presence of L-lysine): 12.8 °C
IC50 (ALK): > 74.4 µM
apparent selectivity index for HsLysRS (HsLysRS; PfLysRS vs HsLysRS): 200
IC50 (HsLysRS; read-out: IC50 against HsLysRS): 12 µM
HillSlope (best-fit value) (PfLysRS [1]; PfLysRS): 1.065
LogIC50 (best-fit value) (PfLysRS [1]; PfLysRS, log of nM): 1.772
IC50 (PfLysRS [1]): 59.2 nM
koff (PfLysRS [5]): 0.0113 s⁻¹
kon (PfLysRS [5]): 911000 M/s
Kd (PfLysRS [5]; 1 mM L-lysine in running buffer, read-out: dissociation constant (KD)): 12.4 nM
Structure (SMILES): COc1ccc(OC)c(Nc2ncnc(Nc3ccccc3S(=O)(=O)CCCNC(=O)[C@@H](N)CCCCN)n2)c1 [Compound 36K3]
solubility [6]: poor solubility

Structure (SMILES): O=C(CC1NCCCC1O)Cn1cnc2cc(Br)c(Cl)cc2c1=O (centres unmarked) [Halofuginone]
Kd (P. falciparum ProRS): 19 nM

Structure (SMILES): C/C(=C\C(=O)OCCCCCCCCC(=O)O)C[C@@H]1OC[C@H](C[C@@H]2O[C@H]2[C@@H](C)[C@H](C)O)[C@@H](O)[C@H]1O [Mupirocin]
MIC (Staphylococcus aureus): 0.05 µg/mL (≈ 0.0999 µM)
